Square brackets hold non-standard residues; d marks the D form. Ends that are not written are not given here. Peptide text beside a SMILES is read from it. Abu(4-PO3H2) = N[C@@H](CCP(=O)(O)O)C(=O)O; pS = N[C@@H](COP(=O)(O)O)C(=O)O
target: HLA-B*0702 (Homo sapiens, UniProt P01889); test: Alpha assay, peptide binding to HLA-B*0702; conditions: Alpha assay (luminescent oxygen channeling), W6/32 antibody and biotinylated recombinant HLA class I; non-linear fit
Method: (§1) Peptides were dissolved in dimethyl sulfoxide (DMSO) at concentrations of 2–20 mg/mL, aliquoted and stored at −80 °C. Peptide-pulsing experiments were performed by pre-incubating T2 cells with 25 μg peptide per 1 × 10^6 cells in PBS for 2 h at 37 °C and 5% CO2, washed three times to remove unbound peptides and used for further downstream analysis. Peptide-pulsed T2 cells were incubated with effector cells in a 2:1 ratio overnight in SF-IMDM at 37 °C and 10% CO2, washed twice and stained with anti-mouse TCR-® chain clone H57-597 (BD Pharmingen #560656, 1:500) for 30 min at RT. Cells were washed twice before FACS-analysis using a BD FACS Canto II with System software v2.0. Data analysis was performed using FlowJo V10 Software. Binding affinity between each peptide and HLA-B*0702 was determined using an Alpha assay. It is a homogenous, proximity-based assay for detection of peptides binding to HLA class I molecules using a conformation-dependent anti-HLA class I antibody, W6/32, as one tag and a biotinylated recombinant HLA class I molecule as the other tag, and a proximity-based signal was generated through the luminescent oxygen channeling immunoassay technology (PerkinElmer) as described.

Row | Compound | Kd
1 | CSCC[C@H](NC(=O)[C@H](CO)NC(=O)[C@H](Cc1c[nH]cn1)NC(=O)[C@H](CO)NC(=O)[C@@H]1CCCN1C(=O)[C@H](CCP(=O)(O)O)NC(=O)[C@H](CCCNC(=N)N)NC(=O)[C@@H]1CCCN1C(=O)[C@@H](N)CCC(=O)O)C(=O)O [E7P-MLL747–755] (H-EPR[Abu(4-PO3H2)]PSHSM-OH) | 33.9 nM
2 | CSCC[C@H](NC(=O)[C@H](CO)NC(=O)[C@H](Cc1c[nH]cn1)NC(=O)[C@H](CO)NC(=O)[C@@H]1CCCN1C(=O)[C@H](COS(=O)(=O)O)NC(=O)[C@H](CCCNC(=N)N)NC(=O)[C@@H]1CCCN1C(=O)[C@@H](N)CCC(=O)O)C(=O)O [OSE-MLL747–755] | 26.2 nM
3 | CC(C)C[C@H](NC(=O)[C@H](CCC(N)=O)NC(=O)[C@H](Cc1c[nH]cn1)NC(=O)[C@H](C)NC(=O)[C@@H]1CCCN1C(=O)[C@H](COP(=O)(O)O)NC(=O)[C@H](C)NC(=O)[C@@H]1CCCN1C(=O)[C@@H](N)CC(C)C)C(=O)O [pDOT1L998–1006] (H-LPA[pS]PAHQL-OH) | 309 nM
4 | CSCC[C@H](NC(=O)[C@H](CO)NC(=O)[C@H](Cc1c[nH]cn1)NC(=O)[C@H](CO)NC(=O)[C@@H]1CCCN1C(=O)[C@H](COP(=O)(O)O)NC(=O)[C@H](CCCNC(=N)N)NC(=O)[C@@H]1CCCN1C(=O)[C@@H](N)CCC(=O)O)C(=O)O [pMLL747–755] (H-EPR[pS]PSHSM-OH) | 56.7 nM
5 | EPRSPSHSM [MLL747–755] | 27 nM
6 | LPASPAHQL [DOT1L998–1006] | 54.3 nM

test system: TCR27-AKD10R3 cells; test: X-scan (peptide scan), EGFP reporter effector cells; type: cell-based, murine; conditions: Fig. 1c source data, HLA B*07, T2 cells pulsed with 25 μg peptide per 1 × 10^6 cells, 2 h, 37 °C, effector cells 2:1 overnight, mean value of triplicate
Method: Tap-deficient T2 (174x CEM.T2) HLA-B*0702+ cells were received from Dr. Victor Engelhard. These and the commercially purchased Tap-deficient T2 (174 x CEM.T2) cells (ATCC CRL 1991) were maintained in RPMI 1640 (BioConcept) supplemented with 10% fetal calf serum (FCS, HyClone), 2mM L-glutamine and 1% Penicillin/Streptomycin at 37 °C and 5% CO2. The EGFP reporter cell line was based on a murine TCR negative thymoma cell line derived from strain BW5417 (ATCC®TIB-47TM) and was stably transduced with (a) TCR27 in which the human constant regions were replaced with those of mouse, (b) a chimeric mouse/human CD8, and (c) an EGFP reporter construct linked to a minimal IL-2 promoter comprising three NFAT-binding sites (3xNFAT)[44]. The transduced cells were termed TCR27-AKD10R3 cells and will be called the effector cells. Mouse cell lines were cultured in SF-IMDM (BioConcept) supplemented with 3% FCS, 1% Penicillin/Streptomycin, and 50 μM beta-mercaptoethanol at 37 °C and 10% CO2.
as §1
To identify the off-target peptides we have utilized an approach that was developed previously. In brief, we investigated which amino acids at each position in pMLL747–755 enable TCR interaction by sequentially replacing every amino acid position outside of the anchor positions 2 and 9 with all 19 alternative amino acids, resulting in 134 peptides (133 altered peptides plus original epitope). Each peptide was individually evaluated using cell-based in vitro cytotoxicity assay. To represent the TCR recognition kernel, we have defined Position Weight Matrices (PWMs) for each assay by assigning normalized measurements to each of the 20 amino acids in each position. To predict potential off-target peptides, we applied an algorithm projecting the PWM-defined kernel into the human proteome, scoring TCR27 recognition for the predicted HLA-B^*0702 binding 9-mer peptides. Of the 11 peptides with highest predicted cross-reactivity scores, we confirmed that only 2, […] and pDOT1L998–1006, strongly activated the TCR27-expressing effector T cells.

Row | Compound | Percentage GFP positive from TCR+ cells
7 | EPRsPSLSM [single-residue substitution of pMLL747–755, Pos 7] | 0.77%
8 | EPRsPSMSM [single-residue substitution of pMLL747–755, Pos 7] | 1.05%
9 | EPRsPSNSM [single-residue substitution of pMLL747–755, Pos 7] | 1.24%
10 | EPRsPSPSM [single-residue substitution of pMLL747–755, Pos 7] | 0.81%
11 | EPRsPSQSM [single-residue substitution of pMLL747–755, Pos 7] | 2.94%
12 | EPRsPSRSM [single-residue substitution of pMLL747–755, Pos 7] | 1.16%
13 | EPRsPSSSM [single-residue substitution of pMLL747–755, Pos 7] | 1.6%
14 | EPRsPSTSM [single-residue substitution of pMLL747–755, Pos 7] | 3.23%
15 | EPRsPSVSM [single-residue substitution of pMLL747–755, Pos 7] | 2.51%
16 | EPRsPSWSM [single-residue substitution of pMLL747–755, Pos 7] | 1.19%
17 | EPRsPSYSM [single-residue substitution of pMLL747–755, Pos 7] | 2.33%
18 | EPRsPTHSM [single-residue substitution of pMLL747–755, Pos 6] | 1.88%
19 | EPRsPVHSM [single-residue substitution of pMLL747–755, Pos 6] | 0.85%
20 | EPRsPWHSM [single-residue substitution of pMLL747–755, Pos 6] | 0.66%
21 | EPRsPYHSM [single-residue substitution of pMLL747–755, Pos 6] | 0.75%
22 | EPRsQSHSM [single-residue substitution of pMLL747–755, Pos 5] | 0.72%
23 | EPRsRSHSM [single-residue substitution of pMLL747–755, Pos 5] | 0.73%
24 | EPRsSSHSM [single-residue substitution of pMLL747–755, Pos 5] | 0.79%
25 | EPRsTSHSM [single-residue substitution of pMLL747–755, Pos 5] | 0.78%
26 | EPRsVSHSM [single-residue substitution of pMLL747–755, Pos 5] | 0.96%
27 | EPRsWSHSM [single-residue substitution of pMLL747–755, Pos 5] | 1.08%
28 | EPRsYSHSM [single-residue substitution of pMLL747–755, Pos 5] | 1%

Row | Compound | Percentage GFP positive from TCR+ cells
29 | EPSsPSHSM [single-residue substitution of pMLL747–755, Pos 3] | 2.7%
30 | EPTsPSHSM [single-residue substitution of pMLL747–755, Pos 3] | 1.16%
31 | EPVsPSHSM [single-residue substitution of pMLL747–755, Pos 3] | 2.11%
32 | EPWsPSHSM [single-residue substitution of pMLL747–755, Pos 3] | 0.92%
33 | EPYsPSHSM [single-residue substitution of pMLL747–755, Pos 3] | 1.08%
34 | FPRsPSHSM [single-residue substitution of pMLL747–755, Pos 1] | 1.43%
35 | GPRsPSHSM [single-residue substitution of pMLL747–755, Pos 1] | 1.59%
36 | HPRsPSHSM [single-residue substitution of pMLL747–755, Pos 1] | 1.23%
37 | IPRsPSHSM [single-residue substitution of pMLL747–755, Pos 1] | 1.7%
38 | KPRsPSHSM [single-residue substitution of pMLL747–755, Pos 1] | 1.37%
39 | LPRsPSHSM [single-residue substitution of pMLL747–755, Pos 1] | 10.7%
40 | MPRsPSHSM [single-residue substitution of pMLL747–755, Pos 1] | 1.37%
41 | NPRsPSHSM [single-residue substitution of pMLL747–755, Pos 1] | 1.27%
42 | PPRsPSHSM [single-residue substitution of pMLL747–755, Pos 1] | 1.13%
43 | QPRsPSHSM [single-residue substitution of pMLL747–755, Pos 1] | 2.64%
44 | RPRsPSHSM [single-residue substitution of pMLL747–755, Pos 1] | 1.11%
45 | SPRsPSHSM [single-residue substitution of pMLL747–755, Pos 1] | 1.08%
46 | TPRsPSHSM [single-residue substitution of pMLL747–755, Pos 1] | 1.28%
47 | VPRsPSHSM [single-residue substitution of pMLL747–755, Pos 1] | 1.39%
48 | WPRsPSHSM [single-residue substitution of pMLL747–755, Pos 1] | 1.18%
49 | YPRsPSHSM [single-residue substitution of pMLL747–755, Pos 1] | 1.32%

same assay, conditions: Fig. 1c source data, second set of control lines at the end of the sheet (no Pep code)

Row | Compound | Percentage GFP positive from TCR+ cells
50 | RVR[pS]PTRSL [unrelated phosphopeptide control of the X-scan, reference compound] | 0.74%

From paper PMC10290117, “Molecular mechanism of phosphopeptide neoantigen immunogenicity” (Nature Communications, 2023)
